The results in this text go back to patent publication US20220168427A1 (Ranok Therapeutics (Hangzhou) Co. Ltd., priority 2019, published 2022).

Where only a bound is given, the exact number is not on record here.

One series has as its target T1, BRD4 (Homo sapiens, UniProt O60885).
T1 construct: endogenous in cells; host or cells: MV4-11
The series can be described thus: BRD4 Degradation Flow Cytometry Assay in MV4-11 cells. The class given is cell-based. The following applies: 24 hr. On the procedure: Protein Degradation Flow Cytometry
MV4-11 cells were plated in a 24-well tissue culture plate at a density of 350,000 cells/450 μL/well and incubated in 37° C./5% CO2 for 1 hr. Cells were then treated with compounds at various concentrations and incubated in 37° C./5% CO2 for 24 hr. Cells were harvested, washed once, counted and 200 μL of 1% paraformaldehyde/PBS was added and incubated for 15 min at room temperature. 200 μL of 1×PBS/0.4% Triton X-100 was added and incubated for 15 min at 4° C. Cells were washed three times and resuspended in 50 μL of 1×PBS/0.2% Triton X-100. 2 μL/10^6 cells of anti-BRD4 antibody (ABCAM, #128874) was added and mixed by pipetting up and down. Cells were incubated for 30 min at room temperature in the dark, washed three times and resuspended in 50 μL of 1×PBS/0.2% Triton X-100. Goat anti-rabbit IgG H&L antibody (1:2000 dilution) was added and mixed by pipetting up and down and incubated for 30 min at room temperature in the dark. Finally, cells were washed three times and resuspended in 200 μL of PBS for flow cytometric analysis.
(§1) % Inhibition=100−(D−B)/(S−B)*100%.
S: The fluorescence intensity of MV4-11 with antibody
D: The fluorescence intensity in the presence of different compound dilutions with antibody
B: The fluorescence intensity of MV4-11 only

For a further series, the target named is HSP90α (Homo sapiens, UniProt P07900). The series can be described thus: HSP90α Binding Fluorescent Polarization (FP) Assay. The following applies: competition with FITC-geldanamycin; read-out: HSP90 Binding Potency. In outline:
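Duplicate wells held BSA buffer, FITC-geldanamycin tracer, compound (3-fold dilution plate spanning 40 μM–2.0 nM) and recombinant protein diluted to 28 μg/ml before addition. Polarization read at 30, 60 and 120 min, 25 °C. Background-corrected mP values gave IC50 through a four-parameter inhibitor-response fit.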

In another series the target is T2, BRD4 (BD1+BD2) (Homo sapiens, UniProt O60885).
T2 construct: 1.8 μg/ml recombinant BRD4 (BD1+BD2 domains) protein
The conditions noted are these: read-out: BRD4 Binding Potency.

Another series has as its system MV4-11 cells. The series can be described thus: MV4-11 Cell Cytotoxicity Assay. The following applies: human, MV4-11 cells, CCK-8. The class given is cell-based, human.
Description: as §1
S: The absorbance of the maximum (cells with DMSO)
B: The absorbance of the minimum (medium with DMSO)

In another series the test system is SU-DHL-4 xenograft. The series can be described thus: SU-DHL-4 DLBCL tumor xenograft study in mice. Here is the method: (§2) Tumor Xenograft Studies in Mice
(§3) 5×10^6 MV-4-11 or 1×10^7 SU-DHL-4 cells were collected and re-suspended in 0.1 mL of serum-free media with Matrigel (1:1 v/v) per mouse for subcutaneous inoculation in isoflurane anesthetized male BALB/c nude or C.B-17 scid mice, respectively (treated in accordance with AAALAC animal welfare guidelines). When the average tumor volumes reached 100-200 mm^3, tumor volume outliers were removed and the remaining animals randomly divided into groups of 6-8 with similar average tumor volumes in each group. […] Animals were intravenously dosed at 25 mg/kg, 50 mg/kg or 100 mg/kg 1×/week for 3 or 4 weeks. The appearance and behavior of each mouse was observed and recorded daily. Body weights and tumor volumes were measured and recorded every 2-4 days and the results were expressed as group means±SEM. Pairwise statistical comparisons between groups were performed by one-way ANOVA, and p<0.05 was considered statistically significant.

A further series deals with MV4-11 xenograft. The series can be described thus: MV4-11 AML tumor xenograft study in mice. Here is the method:
as §2
as §3, with “MV4-11 acute myeloid leukemia and SU-DHL-4 diffuse large B-cell lymphoma (ATCC, #CRL-2957) cells were cultured in medium supplemented with 10% fetal bovine serum at 37° C./5% CO2. 5×10^6” for “5×10^6”, “Animals were intravenously dosed at 25 mg/kg, 50 mg/kg or 100 mg/kg 1×/week for 3 or 4 weeks.” left out

Where [1] appears, read: 100 mg/kg intravenously 1×/week, after 4 weeks of dosing.

Regarding `CC(=O)N1CCC(CN2CCN(Cc3ccc(-n4c(O)nnc4-c4cc(C(C)C)c(O)cc4O)cc3)CC2)CC1` [HSP90 binder, 1-(4-((4-(4-(3-(2,4-dihydroxy-5-isopropylphenyl)-5-hydroxy-4H-1,2,4-triazol-4-yl)benzyl)piperazin-1-yl)methyl)piperidin-1-yl)ethan-1-one, reference compound], the “BRD4 degradation in flow cytometry assay, in words” value (“BRD4 degradation” below) on BRD4 is “no substantial BRD4 degradation was observed”.

As for `Cc1sc2c(c1C)C(c1ccc(Cl)cc1)=N[C@@H](CC(=O)NCC(=O)NCC1CCN(C(=O)C3CCN(Cc4ccc(-n5c(O)nnc5-c5cc(C(C)C)c(O)cc5O)cc4)CC3)C1)c1nnc(C)n1-2` (stereo partly drawn) [Compound 47, 2-((S)-4-(4-chlorophenyl)-2,3,9-trimethyl-6H-thieno[3,2-f][1,2,4]triazolo[4,3-a][1,4]diazepin-6-yl)-N-(2-(((1-(1-(4-(3-(2,4-dihydroxy-5-isopropylphenyl)-5-hydroxy-4H-1,2,4-triazol-4-yl)benzyl)piperidine-4-carbonyl)pyrrolidin-3-yl)methyl)amino)-2-oxoethyl)acetamide, trifluoroacetic acid], the IC50 at HSP90α and on BRD4 (BD1+BD2) was less than 100 nM in each case. Besides, the “degradation of BRD2, BRD3 and BRD4, in words” value on BRD4 (flow cytometry) was “only induced significant degradation of BRD4”. In the series on MV4-11 cells, the IC50 at 72 h was less than 100 nM.

For `Cc1sc2c(c1C)C(c1ccc(Cl)cc1)=N[C@H](CC(=O)N1CCC(CN3CCN(Cc4ccc(-n5c(O)nnc5-c5cc(C(C)C)c(O)cc5O)cc4)CC3)CC1)c1nnc(C)n1-2` [Compound 5, 2-((6R)-4-(4-chlorophenyl)-2,3,9-trimethyl-6H-thieno[3,2-f][1,2,4]triazolo[4,3-a][1,4]diazepin-6-yl)-1-(4-((4-(4-(3-(2,4-dihydroxy-5-isopropylphenyl)-5-hydroxy-4H-1,2,4-triazol-4-yl)benzyl)piperazin-1-yl)methyl)piperidin-1-yl)ethanone, trifluoroacetic acid], the IC50 on HSP90α is 100 to 1000 nM; on BRD4 (BD1+BD2), more than 1000 nM. Also, the “BRD4 degradation” value at BRD4 is reported as “does not degrade BRD4”.

Consider `CCc1cc(-c2nnc(C(=O)NCC(F)(F)F)n2-c2ccc(CN3CCN(CC4CCN(C(=O)C[C@@H]5N=C(c6ccc(Cl)cc6)c6c(sc(C)c6C)-n6c(C)nnc65)CC4)CC3)cc2)c(O)cc1O.Cl` [Compound 78, 4-(4-((4-((1-(2-((6S)-4-(4-chlorophenyl)-2,3,9-trimethyl-6H-thieno[3,2-f][1,2,4]triazolo[4,3-a][1,4]diazepin-6-yl)acetyl)piperidin-4-yl)methyl)piperazin-1-yl)methyl)phenyl)-5-(5-ethyl-2,4-dihydroxyphenyl)-N-(2,2,2-trifluoroethyl)-4H-1,2,4-triazole-3-carboxamide hydrochloride], for which the IC50 at HSP90α and at BRD4 (BD1+BD2) was 100 to 1000 nM each time. Further, in the series with SU-DHL-4 xenograft (setting [1]), the tumor growth inhibition result was “significant tumor growth inhibition”. The “tumor vs control (T/C) value” in the series on SU-DHL-4 xenograft (setting [1]) amounted to 28%. For the same molecule, the “animal deaths and body weights” value in the series with SU-DHL-4 xenograft (any dose level) is on record as “No animal deaths or significant effects on body weights were observed”.

For the molecule (+)-JQ1 [reference compound], on BRD4, the “BRD4 degradation” value was “no substantial BRD4 degradation was observed”. Further, the tumor growth inhibition result in the series with MV4-11 xenograft (25 mg/kg intraperitoneal dosing 1×/day) is “moderate tumor growth inhibition”. The “animal deaths and body weights” value in the series with MV4-11 xenograft (any group) is “No animal deaths or significant effects on body weights were observed”.

With `Cc1sc2c(c1C)C(c1ccc(Cl)cc1)=N[C@@H](CC(=O)N1CCC(CCN3CCC(Cc4ccc(-n5c(O)nnc5-c5cc(C(C)C)c(O)cc5O)cc4)CC3)CC1)c1nnc(C)n1-2` [Compound 80, (S)-2-(4-(4-chlorophenyl)-2,3,9-trimethyl-6H-thieno[3,2-f][1,2,4]triazolo[4,3-a][1,4]diazepin-6-yl)-1-(4-(2-(4-(4-(3-(2,4-dihydroxy-5-isopropylphenyl)-5-hydroxy-4H-1,2,4-triazol-4-yl)benzyl)piperidin-1-yl)ethyl)piperidin-1-yl)ethan-1-one, trifluoroacetic acid], the IC50 was 100 to 1000 nM at HSP90α and less than 100 nM at BRD4 (BD1+BD2). Moreover, the IC50 at 72 h in the series on MV4-11 cells was less than 100 nM.
